The nature of this data set: solvent given as SMILES.

The structures appear in SMILES notation.

On to `Cn1nc(-c2ccccc2)c2nc3cc(Cl)ccc3nc21`, for which the absorption maximum runs as follows: (in C1CCCCC1) 428 nm; (in C1CCOC1) 429 nm; (in CC#N) 427 nm.
Molecule `C(=C\c1cc[n+](Cc2ccccc2)cc1)/c1cc[n+](Cc2ccccc2)cc1` came in with an absorption maximum (in CC#N) of 324 nm.
Consider `F[B-]1(F)n2c(c3ccccc3c2-c2ccccc2)N=C2c3ccccc3C(c3ccccc3)=[N+]21`, for which the absorption maximum (in ClCCl) came to 712 nm.
For `Cc1ccc2ccccc2c1`, the absorption maximum (in C1CCCCC1) worked out at 303.77 nm.
Where the note is “in CC1CCCO1”, `c1ccc2c(c1)-c1ccccc1C21c2ccccc2-c2cnccc21` had an absorption maximum of 305 nm.
Regarding `CCc1s[c+](N2CCCCC2)sc1-c1cc(C)cc(I)c1[O-]`, the absorption maximum (in C1CCOC1) stood at 409 nm, the absorption maximum (in CC#N) came to 405 nm, the absorption maximum (in CO) was 360 nm and the absorption maximum (in ClCCl) was 406 nm.
The molecule `CCCCn1c2c(-c3ccc(N(c4ccccc4)c4ccccc4)cc3)cc(C#N)cc2c2cc(C#N)cc(-c3ccc(N(c4ccccc4)c4ccccc4)cc3)c21` showed an absorption maximum (in ClCCl) of 351 nm.
On the same count and under the same terms, as for `COC(=O)C1=C(C(=O)OC)C2(c3ccccc3-c3c(C(=O)OC)cccc32)[C@@H](c2ccc(Cl)cc2)C=C2c3cc(OC)c(OC)cc3CCN21` (stereo partly drawn), the figure is 311 nm.
In the case of `Cc1cc(C)c(B(c2c(C)cc(C)cc2C)c2cc3cccc4c(B(c5c(C)cc(C)cc5C)c5c(C)cc(C)cc5C)cc5cccc2c5c34)c(C)c1`, the absorption maximum (in CCCCCC) is given as 392 nm.
Consider `Cc1c(C2=[N+]3C(=Cc4c(C)c5ccccc5n4[B-]3(F)F)c3ccccc32)[nH]c2ccccc12`, for which the absorption maximum reads like this: (in C1CCOC1) 608 nm; (in CC#N) 591 nm; (in CCCCCC) 623 nm; (in CO) 598 nm; (in Cc1ccccc1) 625 nm; (in ClCCl) 611 nm.
Turning to `CC(C)=O`, the absorption maximum (in CCCCCC) stood at 279 nm.
The molecule `C=CCN(CC=C)c1ccc(-c2cc(-c3ccc(N(CC=C)CC=C)cc3)cc(-c3ccc(N(CC=C)CC=C)cc3)c2)cc1` showed an absorption maximum (in ClCCl) of 315.85 nm.
Consider `CCCN(CCC)CCC`, for which, where the note is “in CCCCCC”, the absorption maximum is on record as 199 nm.
`COC(=O)C(Cc1ccc2oc(-c3ccc(N(C)C)cc3)nc2c1)NC(=O)OC(C)(C)C` (stereo not drawn): the absorption maximum (in C1CCCCC1) came to 335.1 nm; the absorption maximum (in C1CCOC1) turned out to be 341.8 nm; the absorption maximum (in C1COCCO1) turned out to be 340.8 nm; the absorption maximum (in CC1CCCO1) is on record as 338.9 nm; the absorption maximum (in CC1COC(=O)O1) worked out at 345.1 nm; the absorption maximum (in CC#N) was 343.39 nm. The absorption maximum by setting is: (in CC(C)=O) 343.1 nm; (in CC(C)CC(C)(C)C) 333 nm; (in CC(C)CO) 344.49 nm; (in CC(C)O) 343.9 nm; (in CC(C)OC(C)C) 339.5 nm; (in CC(O)CO) 349.5 nm. Also, the absorption maximum reads like this: (in CCC(C)CC) 333 nm; (in CCCCC) 332.9 nm; (in CCCCCC) 333.6 nm; (in CCCCCCCCC) 334.9 nm; (in CCCCCCCCCC) 334.9 nm; (in CCCCCCCO) 345.7 nm. Besides, the absorption maximum is, setting by setting: (in CCCCCCO) 345.6 nm; (in CCCCCO) 342.7 nm; (in CCCCO) 345.9 nm; (in CCO) 346.6 nm; (in CCOC(C)=O) 339.7 nm; (in CCOCC) 338.2 nm. For the same molecule, the absorption maximum turned out to be 346.5 nm (in CN(C)C=O); 346.5 nm (in CO); 343.9 nm (in COCCOC); 348.5 nm (in CS(C)=O); 342 nm (in Cc1ccccc1); 341.4 nm (in Cc1ccccc1C). Besides, the absorption maximum stood at 344.6 nm (in ClC(Cl)Cl); 344.49 nm (in ClCCl); 349.41 nm (in NC=O); 346.5 nm (in OC1CCCCC1); 351.9 nm (in OCCO); 342.99 nm (in c1ccccc1).
With `c1ccc2c(c1)ccc1ccc3c(c12)-c1c(ccc2ccc4ccccc4c12)C3`, the absorption maximum (in ClCCl) worked out at 400 nm.
Regarding `c1cc2c3c(c1)-c1ccc4c5c(ccc(c15)B3c1ccc3c5c(ccc-2c15)CC3)CC4`, the absorption maximum (in Cc1ccccc1) is listed as 495 nm.
As for `Cc1cc2nc3c(=O)n(C)c(=O)n(C)c3nc2cc1C`, the absorption maximum (in CC#N) is 375 nm.
Regarding `F[B-]1(F)n2c(cc3ccc4ccccc4c32)C(c2ccc(I)cc2)=C2C=C3CCc4ccccc4C3=[N+]21`, under “in ClC(Cl)Cl”, the absorption maximum amounted to 634 nm.
Still for that read-out and setting: the result for `CN(C)c1ccc(-c2ccc(-c3cc(-c4ccccc4)c(-c4ccccc4)c(-c4ccccc4)c3-c3ccccc3)nc2)cc1` reads 332 nm.
The molecule `CCCCCCC1(CCCCCC)c2cc(-c3ccc(-c4ccc(-c5ccc(-c6ccc7c(c6)C(CCCCCC)(CCCCCC)c6cc(-n8c9ccc(-n%10c%11ccccc%11c%11ccccc%11%10)cc9c9cc(-n%10c%11ccccc%11c%11ccccc%11%10)ccc98)ccc6-7)s5)c5nsnc45)s3)ccc2-c2ccc(-n3c4ccc(-n5c6ccccc6c6ccccc65)cc4c4cc(-n5c6ccccc6c6ccccc65)ccc43)cc21` yielded an absorption maximum (in ClCCl) of 514 nm.
Consider `CCOc1ccc(/C=C/c2nc(N3CCOCC3)c3c([n+]2[O-])CCCC3)cc1`, for which, for the setting “in ClCCl”, the absorption maximum came to 384 nm.
With `c1ccc2c(c1)ccc1oc3ccc4cc5oc6ccc7ccc8oc9ccc%10ccccc%10c9c8c7c6c5cc4c3c12`, the absorption maximum (in CC#N) is 352 nm.
For the molecule `C(#Cc1ccc(-n2c3ccccc3c3ccccc32)cc1)c1ccc(-c2nc(-c3ccc(C#Cc4ccc(-n5c6ccccc6c6ccccc65)cc4)cc3)nc(-c3ccc(C#Cc4ccc(-n5c6ccccc6c6ccccc65)cc4)cc3)n2)cc1`, the absorption maximum (in ClCCl) came out at 361 nm.
On to `CC(C)(C)c1ccc(N(c2ccccc2)c2ccc3ccc4c(N(c5ccccc5)c5ccc(C(C)(C)C)cc5)ccc5ccc2c3c54)cc1`, for which the absorption maximum (in ClCCl) is on record as 428 nm.
The same measure, in the same setting: as for `COc1ccc2c(c1)CCC1=C(C#Cc3ccc(Cl)cc3)O[B-](F)(F)[O+]=C12`, the figure is 445 nm.
For the molecule `O=C1CCCc2c1[nH]c1cc3c(cc21)OCO3`, the absorption maximum is, setting by setting: (in C1CCOC1) 337.3 nm; (in CC#N) 335.33 nm; (in CCCCCCO) 343.23 nm; (in CCO) 338.86 nm; (in CCOC(C)=O) 335.84 nm; (in CS(C)=O) 340.34 nm. Moreover, the absorption maximum reads like this: (in O) 341.09 nm; (in c1ccccc1) 339.29 nm.
For the molecule `CN(C)c1ccc(C#Cc2cc(C#Cc3ccc(N(C)C)cc3)c3ccc4c(C#Cc5ccc(N(C)C)cc5)cc(C#Cc5ccc(N(C)C)cc5)c5ccc2c3c54)cc1`, the absorption maximum (in ClCCl) turned out to be 508 nm.
For the molecule `O=Cc1ccc(-c2ccc(-c3nc4ccccc4s3)c(O)c2)o1`, the absorption maximum (in ClCCl) stood at 373 nm and the absorption maximum (in O) worked out at 326 nm.
Consider `CCOC(=O)CSc1nc2c(c(C#N)c1C#N)CCCCCC2`, for which the absorption maximum (in c1ccccc1) came to 360 nm.
Where the note is “in CO”, `COc1ccc(-c2cc(B(c3c(C)cc(C)cc3C)c3c(C)cc(C)cc3C)c(-c3sc(-c4ccc(OC)cc4)cc3P(=O)(c3ccccc3)c3ccccc3)s2)cc1` had an absorption maximum of 402 nm.
Molecule `N#Cc1c(N2CCCCC2)cc(-c2ccc3ccc4cccc5ccc2c3c45)c2c1Cc1ccccc1-2` gave an absorption maximum (in C1CCOC1) of 344 nm.
Under “in ClCCl”, `CCCCCc1c(C(=O)c2ccc3c4c(cccc24)-c2cccc4c2C3CC=C4)c2ccc3cccc4c5cccc6ccc1c(c65)c2c34` (stereo not drawn) registered an absorption maximum of 470 nm.
Under “in Cc1ccccc1”, `CC(C)(C)c1ccc2c(c1)c1cc(C(C)(C)C)cc3c1n2-c1cc(-c2ccc(F)cc2)cc2c1B3c1cc(C(C)(C)C)cc3c4cc(C(C)(C)C)ccc4n-2c13` showed an absorption maximum of 469.92 nm.
In turn, `F[B-]1(F)n2cccc2C(c2ccccc2)=C2C=CC(c3cccc(OC4=[N+]5C(=C(c6ccccc6)c6cc(Br)c(-c7ccc[nH]7)n6[B-]5(F)F)C=C4Br)c3)=[N+]21` returned an absorption maximum (in ClC(Cl)Cl) of 627 nm.
`CC1(C)c2ccccc2N(c2ccc3c(c2)c2cc(N4c5ccccc5C(C)(C)c5ccccc54)ccc2c2nc(C#N)c(C#N)nc32)c2ccccc21` had an absorption maximum (in Cc1ccccc1) of 464 nm.
Consider `CN(C)c1ccc(C2=Nc3scc(-c4ccccc4)[n+]3[B-](F)(F)O2)cc1`, for which the absorption maximum (in C1CCOC1) is given as 406 nm, the absorption maximum (in CC#N) turned out to be 406 nm, the absorption maximum (in Cc1ccccc1) came to 409 nm and the absorption maximum (in ClCCl) was found to be 411 nm.
As to `O=C(O)c1ccccc1Nc1ccccc1`, the absorption maximum turned out to be 353 nm (in C1CCOC1); 353 nm (in C1COCCO1); 350 nm (in CC#N); 356 nm (in CCOC(C)=O); 341 nm (in CN(C)C=O); 357 nm (in ClC(Cl)Cl).
`CCCCCOc1ccc2c(c1)c1ccc3cccc4c5cccc6oc(=O)c2c(c65)c1c34` returned an absorption maximum (in C1CCOC1) of 426 nm.
Molecule `O=[N+]([O-])c1ccc2c(ccc3[n+]2[B-](F)(F)n2c-3cc3c4ccccc4c4ccccc4c32)c1` gave an absorption maximum (in ClCCl) of 530 nm.
As to `N#CC(C#N)=Cc1cn(-c2ccccc2)nc1-c1ccccc1`, the absorption maximum by setting is: (in C1CCOC1) 354 nm; (in C1COCCO1) 353 nm; (in CCO) 354 nm; (in CCOC(C)=O) 352 nm; (in CN(C)C=O) 355 nm; (in CO) 351 nm. Besides, the absorption maximum is given as 356 nm (in CS(C)=O), 361 nm (in Cc1ccccc1), 359 nm (in ClC(Cl)Cl) and 357 nm (in ClCCl).
As for `CCN(CC)c1ccc(/C=N/CC/N=C/c2ccc(N(CC)CC)cc2O)c(O)c1`, the absorption maximum reads like this: (in CC#N) 339 nm; (in CN(C)C=O) 353 nm; (in ClCCl) 344 nm.
